# Measurements reported in US8809314B1, “Cephalosporin compound” (Cubist Pharmaceuticals, Inc., priority 2012, dated 2014).
# Values joined by “and” are separate entries in the source; they are usually repeats but may differ in a detail not shown here. Equal entries are not always repeated.
# Legend:
# MRSA #712 [1] = experiment: Mouse septicemia (systemic infection), PD50; format: in vivo, Staphylococcus aureus; conditions: CD-1 mice, IP inoculum, 2 SC doses at 1 and 6 hrs, 7 day survival
# Experimental: (§1) In vivo efficacy of (I) was evaluated against strains of MRSA, and ceftazidime-resistant Pa and Klebsiella pneumonia (Kpn) in mouse septicemia, thigh and lung infections. Septicemia: CD-1 mice received lethal bacterial inocula IP, followed by 2 doses of antibiotics SC at 1 and 6 hrs post-inoculation. Dose calculated to protect 50% of the mice (PD50) was derived based on probit analysis of percentage survival. Thigh and lung infections: Thighs or lungs of neutropenic mice were inoculated with MRSA or Pa. Two treatment doses were given SC at 1 and 6 hrs post-inoculation. Tissues were harvested at ˜24 hrs post-inoculation and bacterial burdens quantified.
# II. […] MIC was determined in MHB by standard CLSI microdilution. […] The survival of animals was recorded daily for 7 days. The antibiotic dose calculated to protect 50% of the mice (PD50) was derived based on probit analysis of percentage survival. • E. Mouse Thigh and Lung Infections: Mice were rendered neutropenic by two IP injections of cyclophosphamide 4 days (150 mg/kg) and 1 day (100 mg/kg) before bacterial inoculation. […] Tissue bacterial burdens were quantified by serial dilution and spiral plating of homogenates.
# (§2) III. […] The dose that protected 50% of the mice (PD50) was calculated by probit analysis based on percentage of mice surviving for 7 days post-inoculation. • C. […]
# [2] = system: Pseudomonas aeruginosa #44 (ATCC#27853); experiment: Mouse septicemia (systemic infection), PD50; format: in vivo; conditions: Pa #44 (ATCC27853); CD-1 mice, IP inoculum, 2 SC doses at 1 and 6 hrs, 7 day survival
# Experimental: as §1
# (§3) II. Methods • A. Animals: Six week-old, specific pathogen free, female CD-1 mice purchased from Charles River Laboratories (Wilmington, Mass.) were used for all studies after acclimation in Cubist animal facility. All animal procedures were approved by the Cubist Institutional Animal Care and Use Committee. • B. Bacteria and In Vitro Susceptibility Testing: MRSA #712, Pseudomonas aeruginosa #2245 and #2545, and Klebsiella pneumoniae #573 are clinical isolates; Pseudomonas aeruginosa #44 is an ATCC strain (ATCC#27853). MIC was determined in MHB by standard CLSI microdilution. […] The survival of animals was recorded daily for 7 days. The antibiotic dose calculated to protect 50% of the mice (PD50) was derived based on probit analysis of percentage survival. • E. Mouse Thigh and Lung Infections: Mice were rendered neutropenic by two IP injections of cyclophosphamide 4 days (150 mg/kg) and 1 day (100 mg/kg) before bacterial inoculation. […] Tissue bacterial burdens were quantified by serial dilution and spiral plating of homogenates.
# as §2
# [3] = system: ceftazidime-resistant Pseudomonas aeruginosa #2545; format: in vivo; conditions: Pa #2545; CD-1 mice, IP inoculum, 2 SC doses at 1 and 6 hrs, 7 day survival
# Experimental: as §1
# as §3, with “All animal procedures were approved by the Cubist Institutional Animal Care and Use Committee. • B. Bacteria and In Vitro Susceptibility Testing: MRSA #712, Pseudomonas aeruginosa #2245 and #2545, and Klebsiella pneumoniae #573 are clinical isolates; Pseudomonas aeruginosa #44 is an ATCC strain (ATCC#27853).” left out
# [4] = system: Klebsiella pneumoniae #573; experiment: Mouse septicemia (systemic infection), PD50; format: in vivo; conditions: Kpn #573; CD-1 mice, IP inoculum, 2 SC doses at 1 and 6 hrs, 7 day survival
# Experimental: as §1
# as §3, with “All animal procedures were approved by the Cubist Institutional Animal Care and Use Committee. • B. Bacteria and In Vitro Susceptibility Testing: MRSA #712, Pseudomonas aeruginosa #2245 and #2545, and Klebsiella pneumoniae #573 are clinical isolates; Pseudomonas aeruginosa #44 is an ATCC strain (ATCC#27853).” left out
# MRSA #712 [5] = experiment: Thigh infection in neutropenic mice; format: in vivo, Staphylococcus aureus; conditions: MRSA #712 thigh infection, neutropenic mice, 2 SC doses at 1 and 6 hrs, 24 h, vs vehicle
# Experimental: as §1, §3
# Kpn #573 = experiment: MIC in MHB by standard CLSI microdilution (Example 4); format: cell-based; conditions: Klebsiella pneumoniae; Kpn #573; read-out: MIC
# Description: (§4) II. Methods • A. Animals: Six week-old, specific pathogen free, female CD-1 mice purchased from Charles River Laboratories (Wilmington, Mass.) were used for all studies after acclimation in Cubist animal facility. All animal procedures were approved by the Cubist Institutional Animal Care and Use Committee. • B. Bacteria and In Vitro Susceptibility Testing: MRSA #712, Pseudomonas aeruginosa #2245 and #2545, and Klebsiella pneumoniae #573 are clinical isolates; Pseudomonas aeruginosa #44 is an ATCC strain (ATCC#27853). MIC was determined in MHB by standard CLSI microdilution. Comparator Antibiotics Used in Animal Studies: Vancomycin hydrochloride USP was purchased from Hospira (Lake Forest, Ill.); ceftazidime hydrate from Sigma; Primaxin (imipenem and cilastatin) from Merck; ceftaroline was synthesized at a CRO. • D. Mouse Septicemia: Mice received lethal inocula of bacteria in 6% hog gastric mucin intraperitoneally (IP), followed by two treatment doses of antibiotics via subcutaneous (SC) administration at 1 and 6 hrs post-inoculation. The survival of animals was recorded daily for 7 days. The antibiotic dose calculated to protect 50% of the mice (PD50) was derived based on probit analysis of percentage survival. • E. Mouse Thigh and Lung Infections: Mice were rendered neutropenic by two IP injections of cyclophosphamide 4 days (150 mg/kg) and 1 day (100 mg/kg) before bacterial inoculation. Thigh or lung infection was induced by an intramuscular injection of 0.2 mL or intranasal inoculation of 0.1 mL inoculum preparation from an overnight bacterial culture into left thigh or nares. Tissues from one group of mice receiving no treatment (No Rx) were harvested at 1 hr for determination of baseline of bacterial burden. The remaining mice received two treatment doses of vehicles or antibiotics given SC at 1 and 6 hrs post-inoculation. Tissues from the treated mice were harvested at ˜24 hrs post-inoculation. Tissue bacterial burdens were quantified by serial dilution and spiral plating of homogenates.
# MRSA #712 [6] = experiment: as above; format: cell-based; conditions: Staphylococcus aureus; MRSA #712; read-out: MIC
# Description: as §4
# Pa #2545 = experiment: as above; format: cell-based; conditions: Pseudomonas aeruginosa
# Description: as §4
# Pa #44 (ATCC27853) = experiment: as above; format: cell-based; conditions: Pseudomonas aeruginosa
# Description: as §4
smiles,measurement,setting,value
CO/N=C(\C(=O)N[C@@H]1C(=O)N2C(C(=O)[O-])=C(C[n+]3ccc(N)c(NC(=O)Nc4ccc(CCNC(=N)N)cc4)c3)CS[C@H]12)c1nc(N)sc1Cl [(I)],Septicemia PD50 (± SE),MRSA #712 [1],2.0 ± 0.3 mg/kg
same,Septicemia PD50 (± SE),[2],5.3 ± 0.7 mg/kg
same,Septicemia PD50 (± SE),[3],<10.4 mg/kg
same,Septicemia PD50 (± SE),[4],<1.3 mg/kg
same,Thigh (T) ED−2log,MRSA #712 [5],68.9 mg/kg and 68.9 (T) mg/kg
same,MIC,Kpn #573,1 µg/mL
same,MIC,MRSA #712 [6],2 µg/mL
same,MIC,Pa #2545,2 µg/mL
same,MIC,Pa #44 (ATCC27853),1 µg/mL
